Assays:
[1] = target: T1, HIV protease (Human immunodeficiency virus type 1 group M subtype B, UniProt P04585); assay: HIV-specific protease enzyme test (RP-HPLC analysis of synthetic peptide cleavage); assay type: biochemical; details: purified HIV protease incubated with synthetic peptide imitating a Gag-precursor cleavage site; 50% inhibition of protease activity
T1 construct: purified HIV protease was incubated with synthetic peptide
Experimental: The compounds of the general formula (I) have extraordinarily strong action against retroviruses. This was proven by experiments using the HIV-specific protease enzyme test.
The result of the example below was obtained using the HIV-test system described in the following reference [cf. Hansen, J., Billich, S., Schulze, T., Sukrow, S. and Molling, K. (1988), EMBO Journal, Vol. 7, No. 6, pp. 1785-1791]: purified HIV protease was incubated with synthetic peptide which imitates a cleavage site in the Gag-precursor protein and represents an in vivo cleavage site of HIV protease. The resulting cleavage products of the synthetic peptide were analyzed by reverse-phase high performance liquid chromatography (RP-HPLC). The IC50 value relates to the substance concentration which causes 50% inhibition of protease activity under the abovementioned test conditions.

[2] = test system: Visna virus; assay: Visna virus test in infected cell culture (cytopathic effect); assay type: cell-based; details: sheep fibroblast cells infected with Visna virus, MOI approx. 0.05, 7 days at 37° C., non-cytotoxic concentrations
Experimental: This was shown by way of example for the Visna virus.
The Visna virus and the HIV virus both belong to the retrovirus subfamily of lentiviruses.
In cell cultures which are infected with Visna virus, pronounced, virus-induced, cytopathic effects appear 5 to 10 days after infection. By treating the infected cell cultures with compounds according to the invention, it was possible to prevent the appearance of these cytopathic effects.
The Visna virus test was carried out according to the method of O. Narayan et al., Journal of Infectious Diseases 135, 5, 1977, 800-806. For this, a compound according to the invention was diluted to non-cytotoxic concentrations in the culture medium in 96-well microtiter plates. Sheep fibroblast cells (5×10^4 cells per well) in production medium were then added to each well. Each well then received 15 μl of a Visna virus solution having a titer of approx. 2.5×10^4 TCID50 (TCID=tissue culture infections dose). This virus dose corresponds to a MOI (multiplicity of infection) of approx. 0.05.
Under these infection conditions, a virus-induced, cytopathic effect resulted between day 5 and day 10 in an infection control without substance. The infected and treated cells and the control cells were incubated for 7 days at 37° C. and 5% CO2. […]

In the case of “Nα-{Nδ-[1-(1-oxo)ethyl-[1-(5-S-amino-6-cyclohexyl-4-S-hydroxy-2-(1-methyl)ethylhexanoyl)]]-S-isoleucinyl}-2-pyridylmethylamide [Example I]”, the IC50 [1] is reported as 500 pM and the “protection from virus-induced cytopathic effect / cell destruction” value [2] is reported as “protected the cells infected with Visna virus from the virus-induced cell destruction”.
